Laboratory results taken from patent publication US8461160B2, “Dihydropyrimidinones” (Hoffmann-La Roche, Inc., priority 2009, dated 2013).

Target: T1, BACE2 (Homo sapiens, UniProt Q9Y5Z0)
T1 construct: BACE2 enzyme ectodomain (derived from plasmid “pET17b-T7-hu proBACE2”) was prepared as described in Ostermann et al; T7 tag (N); made in house
T1 sequence (Q9Y5Z0 21-473 limits assumed): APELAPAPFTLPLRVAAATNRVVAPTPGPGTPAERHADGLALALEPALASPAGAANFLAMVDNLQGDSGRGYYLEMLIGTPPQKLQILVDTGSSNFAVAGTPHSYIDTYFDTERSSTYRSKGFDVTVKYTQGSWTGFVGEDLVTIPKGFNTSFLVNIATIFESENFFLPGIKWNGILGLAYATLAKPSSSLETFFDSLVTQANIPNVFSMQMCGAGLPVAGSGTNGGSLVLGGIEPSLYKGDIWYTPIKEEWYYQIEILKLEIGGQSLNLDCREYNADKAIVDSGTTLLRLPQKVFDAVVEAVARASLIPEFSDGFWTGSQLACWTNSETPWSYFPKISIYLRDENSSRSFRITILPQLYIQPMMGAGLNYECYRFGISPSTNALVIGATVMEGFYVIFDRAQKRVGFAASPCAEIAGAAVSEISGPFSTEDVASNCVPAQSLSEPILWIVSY
Experiment: Fluorescent-peptide cleavage assay for BACE2 inhibition
Assay type: biochemical
Conditions: BACE2 enzyme ectodomain, fluorescent peptide WS EVNLD AEFRC-MR121, assay buffer pH 4.5, room temperature
Protocol: Fluorescent-Peptide Cleavage Assay for BACE2 Inhibition
The pro-enzyme was stored at 4° C. at a concentration of 70 μg/ml.
A fluorescent peptide with the amino acid sequence WS EVNLD AEFRC-MR121 was synthesised and a stock solution of 1.5 mM in DMSO prepared and stored at −20° C. MR121 is a fluorophore with an excitation wavelength of 630 nm and emission wavelength of 695 nm. The MR121 fluorescence is quenched by the N-terminal tryptophan until the peptide is cleaved by BACE2.
Assays were all made in a Corning 384-well black polystyrene non-binding surface microtitre plate with clear flat bottom and using a Plate:Vision (Perkin Elmer) fluorescence reader. To perform the assay an 80 nM solution of BACE2 was prepared in assay buffer (assay buffer is 100 mM Na-acetate; 20 mM EDTA; 0.05% BSA; pH 4.5) and incubated at room temperature for 1 hour to activate the enzyme. 39 μl of the activated BACE2 was placed in each assay well, followed by 1 μl compound to be tested at an appropriate concentration in 100% DMSO. The plate was then mixed and incubated for 10 minutes at room temperature.
The assay readout is the rate of change of fluorescence intensity giving a relative measure of BACE2 activity. Small values correspond to high inhibition and larger values to low inhibition. […] IC50 values were determined using these assay values generated for a range of inhibitor concentrations and the curve fitting software XLfit (IDBS) using the Sigmoidal Dose-Response Model.

| IC50 [nM] | Compound |
| --- | --- |
| 13 | Cc1ccc(C(=O)Nc2cccc([C@]3(C)CC(=O)N(C)C(N)=N3)c2)s1 [Example 1, 5-Methyl-thiophene-2-carboxylic acid [3-((S)-2-amino-1,4-dimethyl-6-oxo-1,4,5,6-tetrahydro-pyrimidin-4-yl)-phenyl]-amide] |
| 14 | CN1C(=O)C[C@@](C)(c2cccc(NC(=O)c3ccc(Cl)s3)c2)N=C1N [Example 2, 5-Chloro-thiophene-2-carboxylic acid [3-((S)-2-amino-1,4-dimethyl-6-oxo-1,4,5,6-tetrahydro-pyrimidin-4-yl)-phenyl]amide] |
| 86 | Cc1cc(C(=O)Nc2cccc([C@]3(C)CC(=O)N(C)C(N)=N3)c2)c(C)s1 [Example 3, 2,5-Dimethyl-thiophene-3-carboxylic acid [3-((S)-2-amino-1,4-dimethyl-6-oxo-1,4,5,6-tetrahydro-pyrimidin-4-yl)-phenyl]amide] |
| 98 | Cc1nc(C(=O)Nc2cccc([C@]3(C)CC(=O)N(C)C(N)=N3)c2)c(C)o1 [Example 4, 2,5-Dimethyl-oxazole-4-carboxylic acid [3-((S)-2-amino-1,4-dimethyl-6-oxo-1,4,5,6-tetrahydro-pyrimidin-4-yl)-phenyl]amide] |
| 121 | Cc1nc(C)c(C(=O)Nc2cccc([C@]3(C)CC(=O)N(C)C(N)=N3)c2)o1 [Example 5, 2,4-Dimethyl-oxazole-5-carboxylic acid [3-((S)-2-amino-1,4-dimethyl-6-oxo-1,4,5,6-tetrahydro-pyrimidin-4-yl)-phenyl]amide] |
| 307 | Cc1cc(C(=O)Nc2cccc([C@]3(C)CC(=O)N(C)C(N)=N3)c2)on1 [Example 6, 3-Methyl-isoxazole-5-carboxylic acid [3-((S)-2-amino-1,4-dimethyl-6-oxo-1,4,5,6-tetrahydro-pyrimidin-4-yl)-phenyl]amide] |
| 1010 | Cc1cc(C(=O)Nc2cccc([C@]3(C)CC(=O)N(C)C(N)=N3)c2)nn1C [Example 7, 1,5-Dimethyl-1H-pyrazole-3-carboxylic acid [3-((S)-2-amino-1,4-dimethyl-6-oxo-1,4,5,6-tetrahydro-pyrimidin-4-yl)-phenyl]amide] |
| 126 | Cc1cc(C(=O)Nc2cccc([C@]3(C)CC(=O)N(C)C(N)=N3)c2)n(C)n1 [Example 8, 2,5-Dimethyl-2H-pyrazole-3-carboxylic acid [3-((S)-2-amino-1,4-dimethyl-6-oxo-1,4,5,6-tetrahydro-pyrimidin-4-yl)-phenyl]amide] |
| 110 | CN1C(=O)C[C@@](C)(c2cccc(NC(=O)c3cn4ccccc4n3)c2)N=C1N [Example 9, Imidazo[1,2-a]pyridine-2-carboxylic acid [3-((S)-2-amino-1,4-dimethyl-6-oxo-1,4,5,6-tetrahydro-pyrimidin-4-yl)-phenyl]amide] |
| 7 | CN1C(=O)C[C@@](C)(c2cccc(NC(=O)c3ccc(Cl)cn3)c2)N=C1N [Example 10, 5-Chloro-pyridine-2-carboxylic acid [3-((S)-2-amino-1,4-dimethyl-6-oxo-1,4,5,6-tetrahydro-pyrimidin-4-yl)-phenyl]amide] |
| 28 | CN1C(=O)C[C@@](C)(c2cccc(NC(=O)c3ccc(C(F)(F)F)cn3)c2)N=C1N [Example 11, 5-Trifluoromethyl-pyridine-2-carboxylic acid [3-((S)-2-amino-1,4-dimethyl-6-oxo-1,4,5,6-tetrahydro-pyrimidin-4-yl)-phenyl]amide] |
| 37 | Cc1ccc(C(=O)Nc2cccc([C@]3(C)CC(=O)N(C)C(N)=N3)c2)nc1 [Example 12, 5-Methyl-pyridine-2-carboxylic acid [3-((S)-2-amino-1,4-dimethyl-6-oxo-1,4,5,6-tetrahydro-pyrimidin-4-yl)-phenyl]amide] |
| 9 | CN1C(=O)C[C@@](C)(c2cccc(NC(=O)c3ccccn3)c2)N=C1N [Example 13, Pyridine-2-carboxylic acid [3-((S)-2-amino-1,4-dimethyl-6-oxo-1,4,5,6-tetrahydro-pyrimidin-4-yl)-phenyl]-amide] |
| 25 | COc1ccc(C(=O)Nc2cccc([C@]3(C)CC(=O)N(C)C(N)=N3)c2)nc1 [Example 14, 5-Methoxy-pyridine-2-carboxylic acid [3-((S)-2-amino-1,4-dimethyl-6-oxo-1,4,5,6-tetrahydro-pyrimidin-4-yl)-phenyl]-amide] |
| 10 | CN1C(=O)C[C@@](C)(c2cccc(NC(=O)c3ccc(C#N)cn3)c2)N=C1N [Example 15, 5-Cyano-pyridine-2-carboxylic acid [3-((S)-2-amino-1,4-dimethyl-6-oxo-1,4,5,6-tetrahydro-pyrimidin-4-yl)-phenyl]amide] |
| 458 | CN1C(=O)C[C@@](C)(c2cccc(NC(=O)c3ccc(CO)cn3)c2)N=C1N [Example 16, 5-Hydroxymethyl-pyridine-2-carboxylic acid [3-((S)-2-amino-1,4-dimethyl-6-oxo-1,4,5,6-tetrahydro-pyrimidin-4-yl)-phenyl]amide] |
| 120 | Cc1ccc(C(=O)Nc2cccc([C@]3(C)CC(=O)N(C)C(N)=N3)c2)cc1 [Example 17, N-[3-((S)-2-Amino-1,4-dimethyl-6-oxo-1,4,5,6-tetrahydro-pyrimidin-4-yl)-phenyl]-4-methyl-benzamide] |
| 50 | CN1C(=O)C[C@@](C)(c2cccc(NC(=O)c3ccc(Cl)cc3)c2)N=C1N [Example 18, N-[3-((S)-2-Amino-1,4-dimethyl-6-oxo-1,4,5,6-tetrahydro-pyrimidin-4-yl)-phenyl]-4-chloro-benzamide] |
| 549 | CN1C(=O)C[C@@](C)(c2cccc(NC(=O)c3ccc(Cl)nc3)c2)N=C1N [Example 19, N-[3-((S)-2-Amino-1,4-dimethyl-6-oxo-1,4,5,6-tetrahydro-pyrimidin-4-yl)-phenyl]-6-chloro-nicotinamide] |
| 6 | CN1C(=O)C[C@@](C)(c2cccc(NC(=O)c3ncc(Cl)cn3)c2)N=C1N [Example 20, 5-Chloro-pyrimidine-2-carboxylic acid [3-((S)-2-amino-1,4-dimethyl-6-oxo-1,4,5,6-tetrahydro-pyrimidin-4-yl)-phenyl]amide] |
| 4200 | CN1C(=O)C[C@@](C)(c2cccc(NC(=O)c3ccc(=O)n(C)n3)c2)N=C1N [Example 21, 1-Methyl-6-oxo-1,6-dihydro-pyridazine-3-carboxylic acid [3-((S)-2-amino-1,4-dimethyl-6-oxo-1,4,5,6-tetrahydro-pyrimidin-4-yl)-phenyl]amide] |
| 123 | Cc1cnc(C(=O)Nc2cccc([C@]3(C)CC(=O)N(C)C(N)=N3)c2)cn1 [Example 22, 5-Methyl-pyrazine-2-carboxylic acid [3-((S)-2-amino-1,4-dimethyl-6-oxo-1,4,5,6-tetrahydro-pyrimidin-4-yl)-phenyl]amide] |
| 58 | CN1C(=O)C[C@@](C)(c2cccc(NC(=O)c3ccc(=O)[nH]n3)c2)N=C1N [Example 23, 6-Oxo-1,6-dihydro-pyridazine-3-carboxylic acid [3-((S)-2-amino-1,4-dimethyl-6-oxo-1,4,5,6-tetrahydro-pyrimidin-4-yl)-phenyl]amide] |
| 217 | Cc1cncc(C(=O)Nc2cccc([C@]3(C)CC(=O)N(C)C(N)=N3)c2)n1 [Example 24, 6-Methyl-pyrazine-2-carboxylic acid [3-((S)-2-amino-1,4-dimethyl-6-oxo-1,4,5,6-tetrahydro-pyrimidin-4-yl)-phenyl]amide] |
